# Laboratory results from patent publication US20240041042A1, “1-(PYRIDYL)-5-AZINYLPYRAZOLE DERIVATIVES, AND THEIR USE FOR CONTROL OF UNDESIRED PLANT GROWTH” (Bayer Aktiengesellschaft, priority 2020, published 2024).
# Legend:
# Format in all cases: in vivo
# [1] = tested on: Amaranthus retroflexus (AMARE); assay: Post-emergence herbicidal action against AMARE
# Summary of the method: (§1)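 Post-emergence greenhouse spray, one-leaf stage, 600 l/ha water plus 0.5% additive; WP or EC formulations; application rates 320 g/ha or lower. Visual % damage vs untreated controls at ~3 weeks.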
# [2] = tested on: Matricaria inodora (MATIN); assay: Pre-emergence herbicidal action against MATIN
# Summary of the method: (§2)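 Greenhouse pot trial: seeds sown, soil-covered, sprayed before emergence with compound in water (0.5% additive; 600 l/ha; ≤320 g/ha). Scoring visual, ~3 weeks, 0–100% scale vs untreated.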
# [3] = tested on: Alopecurus myosuroides (ALOMY); assay: Pre-emergence herbicidal action against ALOMY; settings: scored visually after about 3 weeks, 100% = plants have died
# Summary of the method: as §2
# [4] = tested on: Verconica persica (VERPE); assay: Pre-emergence herbicidal action against VERPE
# Summary of the method: as §2
# [5] = tested on: Viola tricolor (VIOTR); assay: Post-emergence herbicidal action against VIOTR
# Summary of the method: as §1
# [6] = tested on: Echinochloa crus-galli (ECHCG); assay: Pre-emergence herbicidal action against ECHCG
# Summary of the method: as §2
# [7] = tested on: Pharbitis purpurea (PHBPU); assay: Pre-emergence herbicidal action against PHBPU
# Summary of the method: as §2
# [8] = tested on: Abutilon theophrasti (ABUTH); assay: Post-emergence herbicidal action against ABUTH; settings: visual rating about 3 weeks after treatment vs untreated controls (100% = plants have died, 0% = like control plants)
# Summary of the method: as §1
# [9] = tested on: Lolium rigidum (LOLRI); assay: Pre-emergence herbicidal action against LOLRI
# Summary of the method: as §2
# [10] = tested on: Verconica persica (VERPE); assay: Post-emergence herbicidal action against VERPE
# Summary of the method: as §1
# [11] = 80 g/ha, visual rating about 3 weeks after treatment vs untreated controls (100% = plants have died, 0% = like control plants)
# [12] = 320 g/ha, visual rating about 3 weeks after treatment
SMILES,"Post-emergence action against AMARE in % [1, 11]","Post-emergence action against AMARE in % [1, 12]",Pre-emergence action against MATIN in % ([2]; dosage 320 g/ha),Pre-emergence action against ALOMY ([3]; 80 g/ha),Pre-emergence action against ALOMY ([3]; 320 g/ha),Pre-emergence action against VERPE in % ([4]; dosage 320 g/ha),Post-emergence action against VIOTR in % ([5]; 320 g/ha),Pre-emergence action against ECHCG in % ([6]; dosage 320 g/ha),Pre-emergence action against PHBPU in % ([7]; dosage 320 g/ha),Post-emergence action against ABUTH in % ([8]; 80 g/ha),Post-emergence action against ABUTH in % ([8]; 320 g/ha),Pre-emergence action against LOLRI in % ([9]; dosage 80 g/ha),Pre-emergence action against LOLRI in % ([9]; dosage 320 g/ha),"Post-emergence action against VERPE in % ([10]; 320 g/ha, VERPE)",Post-emergence action against VERPE in % ([10]; dosage 80 g/ha),Pre-emergence action against VERPE in % ([4]; dosage 80 g/ha),Post-emergence action against VIOTR in % ([5]; 80 g/ha),Pre-emergence action against MATIN in % ([2]; dosage 80 g/ha),Pre-emergence action against ECHCG in % ([6]; dosage 80 g/ha),Pre-emergence action against PHBPU in % ([7]; dosage 80 g/ha)
CCOC(=O)COc1nn(-c2ccccn2)c(-c2ccc(F)nc2)c1Br [Example I-02],80%,80%,100%,100%,90%,90%,80%,100%,90%,80%,80%,90%,100%,80%,80%,,,,,
"COC(=O)[C@@H](C)Oc1nn(-c2ncccc2F)c(-c2ccc(F)nc2)c1Br [Example I-05, Methyl (2R)-2-{[4-bromo-1-(3-fluoropyridin-2-yl)-5-(6-fluoropyridin-3-yl)-1H-pyrazol-3-yl]oxy}propanoate]",90%,90%,90%,90%,100%,100%,100%,100%,,80%,80%,80%,100%,90%,90%,100%,100%,,,
COC(=O)COc1nn(-c2ncccc2F)c(-c2ccc(F)nc2)c1Br [Example I-07],90%,90%,100%,90%,100%,100%,90%,100%,90%,80%,90%,,100%,90%,90%,,90%,80%,,
C[C@@H](Oc1nn(-c2ncccc2F)c(-c2ccc(F)nc2)c1Br)C(=O)O [Example I-10],,,100%,100%,100%,100%,80%,90%,90%,,80%,100%,100%,80%,,80%,,80%,80%,90%
COC(=O)COc1nn(-c2ncccc2F)c(-c2cncc(F)c2)c1Br [Example I-16],,80%,100%,100%,100%,90%,80%,90%,80%,,,90%,100%,90%,80%,,80%,100%,90%,
O=C(O)COc1nn(-c2ncccc2F)c(-c2ccc(F)nc2)c1Br [Example I-17],,,100%,100%,100%,100%,80%,90%,90%,,,,100%,80%,,,80%,90%,90%,
C[C@@H](Oc1nn(-c2ncccc2F)c(-c2ccc(F)nc2)c1Br)C(=O)O [Example I-18],,,100%,100%,100%,100%,80%,90%,90%,,80%,90%,100%,,,90%,,100%,90%,
O=C(O)COc1nn(-c2ccccn2)c(-c2cncnc2)c1Br [Example I-66],80%,90%,90%,100%,100%,100%,90%,100%,,,80%,80%,100%,90%,90%,,80%,,80%,
O=C(O)COc1nn(-c2nc(F)ccc2F)c(-c2cncc(F)c2)c1C1CC1 [Example I-148],,,90%,100%,100%,100%,80%,100%,90%,,,90%,100%,80%,80%,90%,80%,90%,90%,
CCOC(=O)COc1nn(-c2nc(F)ccc2F)c(-c2cncc(F)c2)c1C1CC1 [Example I-149],,,90%,90%,100%,100%,80%,100%,90%,,,100%,100%,80%,,,80%,90%,90%,80%
COC(=O)COc1nn(-c2nc(F)ccc2F)c(-c2cncc(F)c2)c1C1CC1 [Example I-164],,,100%,100%,100%,100%,80%,100%,90%,,,100%,100%,80%,80%,90%,,90%,90%,80%
C[C@@H](Oc1nn(-c2nc(F)ccc2F)c(-c2cncc(F)c2)c1C1CC1)C(=O)O [Example I-180],,90%,90%,90%,100%,100%,80%,100%,90%,,,100%,100%,90%,80%,100%,80%,90%,100%,90%
COC(=O)CNC(=O)[C@@H](C)Oc1nn(-c2ccccn2)c(-c2cncc(F)c2)c1Br [Example I-187],,,90%,90%,100%,90%,90%,100%,90%,,80%,90%,100%,90%,90%,90%,80%,90%,90%,90%
COC(=O)[C@@H](C)Oc1nn(-c2ccccn2)c(-c2cncc(F)c2)c1Cl [Example I-189],,,100%,80%,90%,100%,90%,100%,90%,,,100%,100%,90%,90%,90%,90%,90%,90%,90%
